From patent US20250346564A1 (ARase Therapeutics Inc., priority 2022, published 2025) come the findings set out here.

The structures appear in SMILES notation.

The target in experiment [1] is T1, PARG (Homo sapiens (Human), UniProt Q86W56). Briefly: PARG target engagement cellular assay (PAR polymer immunostaining after cisplatin). Format: cell-based. The conditions noted are these: HCC1806 cells treated with cisplatin, then compound titration for 1 h; PAR polymer antibody readout. How it is done: Example a. Inhibition of PARG Target Engagement Cellular Assay
The ability of the compounds of the Examples to inhibit PARG was determined as described below. After treating HCC1806 cells with cisplatin, followed by PARG inhibitor compound titration for 1 h, the cells were fixed in formaldehyde. The cells were permeabilized, blocked, and incubated with antibody against poly (ADP) ribose (PAR) polymer. The cells were then washed and incubated with IR 800 conjugated secondary antibody together with TO-PRO3 iodide nuclear stain. After washing, images of the cells were captured and analyzed on Odyssey CLx instrument and analyzed using LI-COR image studio software.

Experiment [2] has as its target T1, PARG. Briefly: PARG TFMU assay (4-(trifluoromethyl)umbelliferone substrate). Type of experiment: biochemical. The conditions noted are these: PARG 250 pM or 2 nM, 10-point dose response. The procedure: Example C. Inhibition of PARG TEMU Assay
The ability of the compounds of the Examples to inhibit PARG activity in 4. (trifluoromethyl)umbelliferone (TFMU) assay was determined as described below. PARG inhibitors were added into 384 well plate for a 10-point dose response curve at 1:3 dilutions. TFMU PARG substrate and PARG (250 pM or 2 nM) were then added to the plate to initiate enzymatic reaction. After incubation with the reagent, […] was read. IC50 values were calculated using set control points for 100% inhibition as no enzyme and 0% inhibition 250 pM or 2 nM of PARG enzyme.

T1 sequence (Q86W56 whole entry): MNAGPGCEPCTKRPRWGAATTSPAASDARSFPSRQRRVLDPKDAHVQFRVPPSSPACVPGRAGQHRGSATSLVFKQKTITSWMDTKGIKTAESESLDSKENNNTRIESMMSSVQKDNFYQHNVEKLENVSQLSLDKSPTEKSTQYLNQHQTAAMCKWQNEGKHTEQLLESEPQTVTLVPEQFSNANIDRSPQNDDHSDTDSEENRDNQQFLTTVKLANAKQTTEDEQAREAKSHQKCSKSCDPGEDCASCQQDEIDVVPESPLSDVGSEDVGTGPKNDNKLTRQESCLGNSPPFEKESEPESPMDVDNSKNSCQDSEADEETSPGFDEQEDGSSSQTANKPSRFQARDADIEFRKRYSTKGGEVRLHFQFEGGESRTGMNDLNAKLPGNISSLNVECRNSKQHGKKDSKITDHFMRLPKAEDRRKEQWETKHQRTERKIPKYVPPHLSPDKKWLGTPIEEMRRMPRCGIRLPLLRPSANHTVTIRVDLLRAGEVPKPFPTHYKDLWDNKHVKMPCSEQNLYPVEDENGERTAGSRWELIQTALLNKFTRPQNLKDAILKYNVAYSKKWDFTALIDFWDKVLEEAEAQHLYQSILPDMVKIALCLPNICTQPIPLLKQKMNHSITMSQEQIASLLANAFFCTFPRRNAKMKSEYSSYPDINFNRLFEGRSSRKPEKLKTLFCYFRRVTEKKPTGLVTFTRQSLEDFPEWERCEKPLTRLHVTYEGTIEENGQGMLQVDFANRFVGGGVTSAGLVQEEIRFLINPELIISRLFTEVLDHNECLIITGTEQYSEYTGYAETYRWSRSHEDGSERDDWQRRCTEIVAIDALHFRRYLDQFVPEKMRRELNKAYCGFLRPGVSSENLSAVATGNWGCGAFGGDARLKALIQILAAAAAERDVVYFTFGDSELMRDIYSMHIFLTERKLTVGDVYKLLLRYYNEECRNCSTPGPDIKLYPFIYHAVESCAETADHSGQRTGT

Consider `CC(C)C(=O)N1CCN(c2cc(S(=O)(=O)NC3(C)COC3)cc3c2cnn3-c2nnc(C(F)F)s2)CC1` [Example 6, 1-[5-(difluoromethyl)-1,3,4-thiadiazol-2-yl]-N-(3-methyloxetan-3-yl)-4-[4-(2-methylpropanoyl)piperazin-1-yl]indazole-6-sulfonamide], for which the IC50 (commonly the midpoint of a concentration-inhibition curve) is under 10 µM at PARG [1] and under 50 nM on PARG [2].
Turning to `CCn1c(=O)c2cc(S(=O)(=O)NC3(C)CCC3)ccc2n(CC)c1=O` [Example 7, 1,3-diethyl-N-(1-methylcyclobutyl)-2,4-dioxoquinazoline-6-sulfonamide], the IC50 was over 100 µM at PARG [1] and at least 5000 nM against PARG [2].
Consider `COC(=O)/C=C/Cn1c(=O)[nH]c2ccc(S(=O)(=O)NC3(C)COC3)cc2c1=O` [Example 9, methyl (2E)-4-{6-[(3-methyloxetan-3-yl)sulfamoyl]-2,4-dioxo-1H-quinazolin-3-yl}but-2-enoate], for which the IC50 on PARG [1] lay within 10 to 100 µM; on PARG [2] it was 500 to 5000 nM.
Turning to `CCn1c(=O)c2cc(S(=O)(=O)NC3(C#N)COC3)ccc2n(CC)c1=O` [Example 10, N-(3-cyanooxetan-3-yl)-1,3-diethyl-2,4-dioxoquinazoline-6-sulfonamide], the half-inhibitory concentration (IC50) at PARG [1] lay within 10 to 100 µM; against PARG [2] it was 500 to 5000 nM.
Regarding `COC(=O)/C=C/Cn1c(=O)c2cc(S(=O)(=O)NC3(C)COC3)ccc2n(CC2COC2)c1=O` [Example 11, methyl (2E)-4-{6-[(3-methyloxetan-3-yl)sulfamoyl]-1-(oxetan-3-ylmethyl)-2,4-dioxoquinazolin-3-yl}but-2-enoate], the figures for the concentration for half-maximal inhibition (IC50) at PARG [1] and at PARG [2] were under 10 µM and 500 to 5000 nM, respectively.
Turning to `COC(=O)/C=C/CCn1c(=O)[nH]c2ccc(S(=O)(=O)NC3(C)COC3)cc2c1=O` [Example 12, methyl (E)-5-(6-(N-(3-methyloxetan-3-yl)sulfamoyl)-2,4-dioxo-1,4-dihydroquinazolin-3(2H)-yl)pent-2-enoate], the figures for the IC50 against PARG [1] and against PARG [2] were over 100 µM and 500 to 5000 nM, respectively.
With `Cc1ncc(Cn2c(=O)c3cc(S(=O)(=O)NC4(C)COC4)ccc3n(Cc3sc(C)nc3C)c2=O)s1` [Example 14, 1-((2,4-dimethylthiazol-5-yl)methyl)-N-(3-methyloxetan-3-yl)-3-((2-methylthiazol-5-yl)methyl)-2,4-dioxo-1,2,3,4-tetrahydroquinazoline-6-sulfonamide], the results for the half-maximal inhibitory concentration (IC50) at PARG [1] and against PARG [2] were 10 to 100 µM and under 50 nM, respectively.
In the case of `CCn1c(=O)c2cc(S(=O)(=O)NC3(C(F)F)COC3)ccc2n(CC)c1=O` [Example 18, N-(3-(difluoromethyl)oxetan-3-yl)-1,3-diethyl-2,4-dioxo-1,2,3,4-tetrahydroquinazoline-6-sulfonamide], the IC50 against PARG [1] is over 100 µM; at PARG [2], 500 to 5000 nM.
As to `CNC(=O)/C=C/Cn1c(=O)[nH]c2ccc(S(=O)(=O)NC3(C)COC3)cc2c1=O` [Example 19, (E)-N-methyl-4-(6-(N-(3-methyloxetan-3-yl)sulfamoyl)-2,4-dioxo-1,4-dihydroquinazolin-3(2H)-yl) but-2-enamide], the 50% inhibitory concentration (IC50) against PARG [1] was over 100 µM; on PARG [2] it was 500 to 5000 nM.
On the same counts, the results for `CCn1c(=O)c2cc(S(=O)(=O)NC3(CF)COC3)ccc2n(CC)c1=O` [Example 20, 1,3-diethyl-N-(3-(fluoromethyl)oxetan-3-yl)-2,4-dioxo-1,2,3,4-tetrahydroquinazoline-6-sulfonamide] are 10 to 100 µM and 50 to 500 nM.
